Measured values published in patent US11607396B2, “Bicyclic amide compounds and methods of use thereof” (Genentech, Inc., priority 2016, dated 2023).

Molecular target: human RIP1 kinase domain (2-375) (Homo sapiens (Human), UniProt Q13546)
Test: RIP1 kinase inhibition biochemical assay (Transcreener ADP, fluorescence polarization)
Conditions: apparent Ki (Kiapp, Morrison tight-binding fit); 50 nM enzyme, 50 uM ATP, 2 hours incubation
Method: RIP1 Kinase Inhibition Assays (Biochemical Assay):
The compounds of the present invention were tested for their capacity to inhibit RIP IK activity as described below.
Enzyme assay: The ability of the receptor interacting protein kinase (RIPK1) to catalyze the hydrolysis of adenosine-5′-triphosphate (ATP) is monitored using the Transcreener ADP (adenosine-5′-diphosphate) assay (BellBrook Labs). Purified human RIP1 kinase domain (2-375) (50 nM) derived from a baculovirus-infected insect cell expression system is incubated with test compounds for 2 hours in 50 mM Hepes buffer (pH 7.5) containing 30 mM MgCl2, 1 mM dithiothreitol, 50 uM ATP, 0.002% Brij-35, and 0.5% dimethyl sulfoxide (DMSO). Reactions are quenched by the addition of IX Bell Brooks Stop buffer B (20 mM Hepes (ph7.5), 40 mM ethylenediaminetetraacetic acid and 0.02% Brij-35) containing an additional 12 mM EDTA and 55 ug/mL ADP2 antibody and 4 nM ADP-AlexaFluor® 633 tracer. The tracer bound to the antibody is displaced by the ADP generated during the RIP IK reaction, which causes a decrease in fluorescence polarization that is measured by laser excitation at 633 nm with a FP microplate reader M1000. Fractional activity was plotted against test article concentration. […]

Sequence of human RIP1 kinase domain (2-375) (Q13546 2-375): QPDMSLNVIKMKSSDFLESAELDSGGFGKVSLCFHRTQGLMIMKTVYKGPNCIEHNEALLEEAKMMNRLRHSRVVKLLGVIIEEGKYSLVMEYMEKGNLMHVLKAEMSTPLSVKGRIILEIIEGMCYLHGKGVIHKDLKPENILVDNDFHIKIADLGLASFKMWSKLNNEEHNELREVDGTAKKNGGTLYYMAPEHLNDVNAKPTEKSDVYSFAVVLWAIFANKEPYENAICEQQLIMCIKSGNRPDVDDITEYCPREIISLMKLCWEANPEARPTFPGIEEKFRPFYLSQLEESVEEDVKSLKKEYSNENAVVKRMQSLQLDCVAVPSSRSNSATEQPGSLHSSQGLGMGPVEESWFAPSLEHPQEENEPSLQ

Ki	Structure (SMILES)
233 nM	O=C(c1nc2n(n1)CCC2c1ccccc1F)N1CC(F)(F)C1 (racemic) [Example 14, (3,3-difluoroazetidin-1-yl)-[7-(2-fluorophenyl)-6,7-dihydro-5H-pyrrolo[1,2-b][1,2,4]triazol-2-yl]methanone]
4 nM	O=C(c1nc2n(n1)[C@H](c1ccccc1)C[C@@H]2F)N1CC(F)(F)C1 (single isomer, unassigned) [Example 36]
